Test results reported in ChEMBL document CHEMBL1132913, “Conformationally-restricted ligands for the histamine H1 receptor” (Bioorg Med Chem Lett, 2000).
The source made the active and inactive calls. No cut-off for these calls is given here.

How the values were obtained:
[1] = species on record: Mus musculus; test: Effect of compound in the […] challenge in mice; No activity; assay type: functional, organism-based
[2] = biological target: T1, Histamine H1 receptor (Cavia porcellus, UniProt P31389); test: In vitro antagonistic activity at the Histamine H1 receptor in guinea pig ileum; assay type: functional, tissue-based
T1 sequence (P31389 whole entry): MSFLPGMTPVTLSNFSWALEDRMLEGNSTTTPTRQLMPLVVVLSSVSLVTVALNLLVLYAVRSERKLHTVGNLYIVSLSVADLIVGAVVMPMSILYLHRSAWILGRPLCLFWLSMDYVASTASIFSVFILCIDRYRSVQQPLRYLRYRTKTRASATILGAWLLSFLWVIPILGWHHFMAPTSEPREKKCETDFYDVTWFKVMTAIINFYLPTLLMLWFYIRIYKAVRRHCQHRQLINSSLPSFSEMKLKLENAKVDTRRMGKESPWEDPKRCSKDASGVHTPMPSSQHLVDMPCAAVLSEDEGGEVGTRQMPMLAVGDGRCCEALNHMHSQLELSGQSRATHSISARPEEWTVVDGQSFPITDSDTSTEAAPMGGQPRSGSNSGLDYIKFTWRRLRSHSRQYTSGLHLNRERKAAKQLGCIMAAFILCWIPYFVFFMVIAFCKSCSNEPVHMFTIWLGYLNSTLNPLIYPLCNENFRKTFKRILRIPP

[3] = test system: Mus musculus; test: In vivo activity of compound at 40 mg/kg in 48/80 challenge expressed as number of mice surviving for more than 240 min; 0/2; assay type: functional; conditions: 4 h
[4] = test system: Mus musculus; test: In vivo activity of compound at 10 mg/kg in 48/80 challenge expressed as number of mice surviving for more than 240 min; 0/2; assay type: functional; conditions: 4 h
[5] = Partition coefficient (logP); assay type: physicochemical; conditions: octanol/water
[6] = biological target: T1, Histamine H1 receptor; test: In vitro antagonistic activity at the Histamine H1 receptor in guinea pig ileum; No inhibition; assay type: functional, tissue-based
[7] = species on record: Mus musculus; test: Effective dose of compound in the […] challenge in mice.; assay type: functional
[8] = species on record: Mus musculus; test: Ability of compound to protect mice against a lethal dose of 48/80; No activity; assay type: functional, organism-based
[9] = species on record: Mus musculus; test: Compound was tested for protection against 48/80 challenge in mice; No activity with both mice dying at 36 min; assay type: functional, organism-based
[10] = test system: Mus musculus; test: Effective dose (in vivo) by administering the compound in mice was determined; assay type: functional
[11] = test system: Mus musculus; test: In vivo activity of compound at 40 mg/kg in 48/80 challenge expressed as number of mice surviving for more than 240 min; 1/2; assay type: functional; conditions: 4 h
[12] = test system: Mus musculus; test: In vivo activity of compound at 40 mg/kg in 48/80 challenge expressed as number of mice surviving for more than 240 min; 2/2; assay type: functional; conditions: 4 h
[13] = test system: Mus musculus; test: In vivo activity of compound at 10 mg/kg in 48/80 challenge expressed as number of mice surviving for more than 240 min; 1/2; assay type: functional; conditions: 4 h

Row | SMILES | IC50 [2] [µM] | survival at 40 mg/kg [3] [%] | survival at 10 mg/kg [4] [%] | logP ([5]; read-out: logP) | other results
1 | CCc1ccc([C@@H]2c3cc(CC)ccc3[C@@H]3CCN(C)C[C@H]23)cc1 |  |  |  |  | ED50 [1]: inactive
2 | CN1CCC2=C(C1)C(c1ccccc1)c1ccccc12 (centres undefined) [PHENINDAMINE] | 0.036 |  |  |  | 
3 | CCc1ccc(C2C3=C(CCN(C)C3)c3ccc(CC)cc32)cc1 (centres undefined) |  | 0 | 0 |  | 
4 | CN1CC=C2C(=C(c3ccccc3)c3ccccc32)C1 | 0.22 | 0 | 0 | 4.94 | 
5 | c1ccc(CCN2CCC3=C(C2)C(c2ccccc2)c2ccccc23)cc1 (centres undefined) |  | 0 | 0 | 6.59 | 
6 | CCN1CC=C2C(=C(c3ccccc3)c3ccccc32)C1 |  |  |  |  | IC50 [6]: Not Active
7 | CN1CC[C@H]2c3ccccc3C(c3ccccc3)[C@H]2C1 (single isomer, unassigned) |  |  |  |  | ED50 [7]: 40 mg/kg
8 | CCN1CC[C@@](O)(c2ccccc2)[C@H](C(=O)c2ccccc2)C1 | 0.023 |  |  |  | Activity [8]: inactive
9 | CN1CC[C@H]2c3ccccc3[C@@H](c3ccccc3)[C@H]2C1 |  |  |  |  | Activity [9]: inactive
10 | c1ccc(CN2CCC3=C(C2)C(c2ccccc2)c2ccccc23)cc1 (centres undefined) | 0.47 | 0 | 0 | 6.02 | 
11 | c1ccc(CN2CCC3C(=C(c4ccccc4)c4ccccc43)C2)cc1 (centres undefined) | 0.0108 | 0 | 0 |  | logP [5]: 7.03
12 | C1=C2C(=C(c3ccccc3)c3ccccc32)CNC1 | 0.053 | 50 |  | 4.41 | ED50 [10]: 40 mg/kg; survival at 40 mg/kg [11]: 50%
13 | CCN1CCC2=C(C1)C(c1ccccc1)c1ccccc12 (centres undefined) | 0.017 |  | 0 | 4.92 | survival at 40 mg/kg [11]: 50%
14 | CN1CC[C@@](O)(c2ccccc2)[C@H](C(=O)c2ccccc2)C1 | 0.026 |  |  |  | Activity [8]: inactive
15 | CN1CCC2C(=C(c3ccccc3)c3ccccc32)C1 (centres undefined) | 0.028 |  |  | 5.23 | survival at 40 mg/kg [12]: 100%; survival at 10 mg/kg [13]: 50%
16 | CCN1CCC2C(=C(c3ccccc3)c3ccccc32)C1 (centres undefined) |  |  |  | 5.76 | survival at 40 mg/kg [12]: 100%
17 | c1ccc(CCN2CCC3C(=C(c4ccccc4)c4ccccc43)C2)cc1 (centres undefined) |  |  | 0 | 7.43 | survival at 40 mg/kg [11]: 50%
